Marks after values point to notes of the source that are not given here. Residues, ends and D or L forms follow the SMILES beside them.
Assays:
[1] = Hematology of rats at the end of treatment; assay type: in vivo, Sprague-Dawley rats; conditions: median (IQR)
[2] = Coagulation in rats at the end of treatment; assay type: in vivo, Sprague-Dawley rats; conditions: median (IQR)
in vivo = conditions: Sprague-Dawley, rat, iv

Structure (SMILES): CC[C@H](C)[C@@H]1NC(=O)[C@@H]2CSSC[C@H](NC(=O)[C@H](CCCNC(=N)N)NC(=O)[C@@H]3CSSC[C@H](NC1=O)C(=O)N[C@@H]([C@@H](C)O)C(=O)N[C@@H](CCCNC(=N)N)C(=O)NCC(=O)N[C@@H](Cc1ccccc1)C(=O)N3)C(=O)N[C@@H](CC(C)C)C(=O)N[C@H]1CSSC[C@H](NC(=O)[C@H](C(C)C)NC(=O)CNC(=O)[C@H](CCCNC(=N)N)NC(=O)[C@H](CCCNC(=N)N)NC1=O)C(=O)N[C@@H](CCCNC(=N)N)C(=O)N2 [RTD-1, Rhesus theta (θ) defensin-1] (HELM PEPTIDE1{G.F.C.R.C.L.C.R.R.G.V.C.R.C.I.C.T.R}$PEPTIDE1,PEPTIDE1,3:R3-16:R3|PEPTIDE1,PEPTIDE1,5:R3-14:R3|PEPTIDE1,PEPTIDE1,7:R3-12:R3|PEPTIDE1,PEPTIDE1,1:R1-18:R2$$$V2.0)
- Basophils, absolute ([1]; female, 5 mg/kg/day): 0.02 (0.02) 10^3/mm^3
- Eosinophils, absolute ([1]; female, 5 mg/kg/day): 0.30 (0.23) 10^3/mm^3
- HDW ([1]; female, 5 mg/kg/day): 2.37 (0.16) g/dL
- Hematocrits ([1]; female, 5 mg/kg/day): 40.50 (1.90) %
- Hemoglobin ([1]; female, 5 mg/kg/day): 13.50 (1.00) g/dL
- LUC, absolute ([1]; female, 5 mg/kg/day): 0.02 (0.03) 10^3/mm^3
- Lymphocytes, absolute ([1]; female, 5 mg/kg/day): 4.78 (3.21) 10^3/mm^3
- MCH ([1]; female, 5 mg/kg/day): 19.10 (1.00) pg
- MCHC ([1]; female, 5 mg/kg/day): 33.40 (0.40) g/dL
- MCV ([1]; female, 5 mg/kg/day): 57.90 (2.80) fL
- Monocytes, absolute ([1]; female, 5 mg/kg/day): 0.17 (0.08) 10^3/mm^3
- Neutrophils, absolute ([1]; female, 5 mg/kg/day): 1.33 (0.99) 10^3/mm^3
- Platelets ([1]; female, 5 mg/kg/day): 801.00 (306.00) 10^3/mm^3
- RBC ([1]; female, 5 mg/kg/day): 6.88 (0.33) 10^6/mm^3
- RDW ([1]; female, 5 mg/kg/day): 12.70 (0.80) %
- Reticulocytes, absolute ([1]; female, 5 mg/kg/day): 256.70 (53.50) 10^3/mm^3
- WBC ([1]; female, 5 mg/kg/day): 6.50 (3.50) 10^3/mm^3
- Basophils, absolute ([1]; female, 10 mg/kg/day): 0.04 (0.02) 10^3/mm^3
- Eosinophils, absolute ([1]; female, 10 mg/kg/day): 0.33 (0.14) 10^3/mm^3
- HDW ([1]; female, 10 mg/kg/day): 2.45 (0.16) g/dL
- Hematocrits ([1]; female, 10 mg/kg/day): 41.15 (1.83) %
- Hemoglobin ([1]; female, 10 mg/kg/day): 13.70 (0.38) g/dL
- LUC, absolute ([1]; female, 10 mg/kg/day): 0.04 (0.03) 10^3/mm^3
- Lymphocytes, absolute ([1]; female, 10 mg/kg/day): 7.13 (1.76)^c 10^3/mm^3
- MCH ([1]; female, 10 mg/kg/day): 18.95 (0.45) pg
- MCHC ([1]; female, 10 mg/kg/day): 33.25 (0.35) g/dL
- MCV ([1]; female, 10 mg/kg/day): 57.30 (2.43) fL
- Monocytes, absolute ([1]; female, 10 mg/kg/day): 0.39 (0.13)^c^,^d 10^3/mm^3
- Neutrophils, absolute ([1]; female, 10 mg/kg/day): 2.18 (1.30) 10^3/mm^3
- Platelets ([1]; female, 10 mg/kg/day): 939.00 (314.75) 10^3/mm^3
- RBC ([1]; female, 10 mg/kg/day): 7.21 (0.40) 10^6/mm^3
- RDW ([1]; female, 10 mg/kg/day): 12.95 (0.40) %
- Reticulocytes, absolute ([1]; female, 10 mg/kg/day): 277.25 (42.00) 10^3/mm^3
- WBC ([1]; female, 10 mg/kg/day): 10.75 (3.68)^c 10^3/mm^3
- Basophils, absolute ([1]; female, 20 mg/kg, day 2): 0.06 (0.06) 10^3/mm^3
- Eosinophils, absolute ([1]; female, 20 mg/kg, day 2): 0.13 (0.06)^c^,^e 10^3/mm^3
- HDW ([1]; female, 20 mg/kg, day 2): 2.37 (0.32) g/dL
- Hematocrits ([1]; female, 20 mg/kg, day 2): 46.85 (14.28) %
- Hemoglobin ([1]; female, 20 mg/kg, day 2): 15.15 (4.58) g/dL
- LUC, absolute ([1]; female, 20 mg/kg, day 2): 0.05 (0.03) 10^3/mm^3
- Lymphocytes, absolute ([1]; female, 20 mg/kg, day 2): 5.56 (2.93) 10^3/mm^3
- MCH ([1]; female, 20 mg/kg, day 2): 19.60 (0.88) pg
- MCHC ([1]; female, 20 mg/kg, day 2): 32.30 (0.30)^d^,^e g/dL
- MCV ([1]; female, 20 mg/kg, day 2): 60.95 (2.18)^e fL
- Monocytes, absolute ([1]; female, 20 mg/kg, day 2): 0.33 (0.26)^c 10^3/mm^3
- Neutrophils, absolute ([1]; female, 20 mg/kg, day 2): 2.55 (2.72) 10^3/mm^3
- Platelets ([1]; female, 20 mg/kg, day 2): 603.50 (524.00)^e 10^3/mm^3
- RBC ([1]; female, 20 mg/kg, day 2): 7.63 (2.19) 10^6/mm^3
- RDW ([1]; female, 20 mg/kg, day 2): 12.20 (0.57)^e %
- Reticulocytes, absolute ([1]; female, 20 mg/kg, day 2): 325.95 (60.38)^c^,^d 10^3/mm^3
- WBC ([1]; female, 20 mg/kg, day 2): 8.15 (5.70) 10^3/mm^3
- Basophils, absolute ([1]; male, 5 mg/kg/day): 0.03 (0.02) 10^3/mm^3
- Eosinophils, absolute ([1]; male, 5 mg/kg/day): 0.37 (0.10) 10^3/mm^3
- HDW ([1]; male, 5 mg/kg/day): 2.30 (0.09) g/dL
- Hematocrits ([1]; male, 5 mg/kg/day): 43.75 (1.73) %
- Hemoglobin ([1]; male, 5 mg/kg/day): 14.10 (0.98) g/dL
- LUC, absolute ([1]; male, 5 mg/kg/day): 0.03 (0.02) 10^3/mm^3
- Lymphocytes, absolute ([1]; male, 5 mg/kg/day): 6.03 (1.81) 10^3/mm^3
- MCH ([1]; male, 5 mg/kg/day): 19.95 (1.35) pg
- MCHC ([1]; male, 5 mg/kg/day): 32.10 (0.33) g/dL
- MCV ([1]; male, 5 mg/kg/day): 61.75 (2.90) fL
- Monocytes, absolute ([1]; male, 5 mg/kg/day): 0.22 (0.20) 10^3/mm^3
- Neutrophils, absolute ([1]; male, 5 mg/kg/day): 2.04 (0.96) 10^3/mm^3
- Platelets ([1]; male, 5 mg/kg/day): 1,052.00 (145.00) 10^3/mm^3
- RBC ([1]; male, 5 mg/kg/day): 7.06 (0.23) 10^6/mm^3
- RDW ([1]; male, 5 mg/kg/day): 13.95 (1.15) %
- Reticulocytes, absolute ([1]; male, 5 mg/kg/day): 359.65 (38.03) 10^3/mm^3
- WBC ([1]; male, 5 mg/kg/day): 8.40 (2.53) 10^3/mm^3
- Basophils, absolute ([1]; male, 10 mg/kg/day): 0.03 (0.02) 10^3/mm^3
- Eosinophils, absolute ([1]; male, 10 mg/kg/day): 0.31 (0.24) 10^3/mm^3
- HDW ([1]; male, 10 mg/kg/day): 2.20 (0.20) g/dL
- Hematocrits ([1]; male, 10 mg/kg/day): 43.65 (1.20) %
- Hemoglobin ([1]; male, 10 mg/kg/day): 14.20 (0.65) g/dL
- LUC, absolute ([1]; male, 10 mg/kg/day): 0.03 (0.02) 10^3/mm^3
- Lymphocytes, absolute ([1]; male, 10 mg/kg/day): 6.69 (2.92) 10^3/mm^3
- MCH ([1]; male, 10 mg/kg/day): 20.20 (0.55) pg
- MCHC ([1]; male, 10 mg/kg/day): 32.35 (0.72) g/dL
- MCV ([1]; male, 10 mg/kg/day): 62.60 (3.05) fL
- Monocytes, absolute ([1]; male, 10 mg/kg/day): 0.28 (0.10) 10^3/mm^3
- Neutrophils, absolute ([1]; male, 10 mg/kg/day): 1.85 (0.61) 10^3/mm^3
- Platelets ([1]; male, 10 mg/kg/day): 1,086.00 (192.25) 10^3/mm^3
- RBC ([1]; male, 10 mg/kg/day): 7.06 (0.38) 10^6/mm^3
- RDW ([1]; male, 10 mg/kg/day): 13.10 (1.13) %
- Reticulocytes, absolute ([1]; male, 10 mg/kg/day): 314.20 (33.35)^c 10^3/mm^3
- WBC ([1]; male, 10 mg/kg/day): 10.05 (3.28) 10^3/mm^3
- Basophils, absolute ([1]; male, 20 mg/kg, day 2): 0.03 (0.03) 10^3/mm^3
- Eosinophils, absolute ([1]; male, 20 mg/kg, day 2): 0.15 (0.06)^c^,^d^,^e 10^3/mm^3
- HDW ([1]; male, 20 mg/kg, day 2): 2.44 (0.25)^e g/dL
- Hematocrits ([1]; male, 20 mg/kg, day 2): 37.30 (3.70)^d^,^e %
- Hemoglobin ([1]; male, 20 mg/kg, day 2): 12.10 (1.00)^d^,^e g/dL
- LUC, absolute ([1]; male, 20 mg/kg, day 2): 0.07 (0.05)^c^,^d^,^e 10^3/mm^3
- Lymphocytes, absolute ([1]; male, 20 mg/kg, day 2): 4.24 (1.79)^d^,^e 10^3/mm^3
- MCH ([1]; male, 20 mg/kg, day 2): 20.00 (0.60) pg
- MCHC ([1]; male, 20 mg/kg, day 2): 31.80 (0.50) g/dL
- MCV ([1]; male, 20 mg/kg, day 2): 62.50 (2.10) fL
- Monocytes, absolute ([1]; male, 20 mg/kg, day 2): 0.93 (0.29)^c^,^d^,^e 10^3/mm^3
- Neutrophils, absolute ([1]; male, 20 mg/kg, day 2): 8.40 (3.42)^c^,^d^,^e 10^3/mm^3
- Platelets ([1]; male, 20 mg/kg, day 2): 728.00 (86.00)^c^,^d^,^e 10^3/mm^3
- RBC ([1]; male, 20 mg/kg, day 2): 6.04 (0.47)^d^,^e 10^6/mm^3
- RDW ([1]; male, 20 mg/kg, day 2): 14.30 (1.20) %
- Reticulocytes, absolute ([1]; male, 20 mg/kg, day 2): 373.30 (106.50)^e 10^3/mm^3
- WBC ([1]; male, 20 mg/kg, day 2): 13.70 (4.90)^c^,^d 10^3/mm^3
- APTT ([2]; female, 5 mg/kg): 10.60 (0.70) s
- Fibrinogen ([2]; female, 5 mg/kg): 223.00 (80.00) mg/dL
- PT ([2]; female, 5 mg/kg): 16.30 (1.40) s
- APTT ([2]; female, 10 mg/kg): 10.85 (2.43) s
- Fibrinogen ([2]; female, 10 mg/kg): 283.00 (36.50) mg/dL
- PT ([2]; female, 10 mg/kg): 17.05 (0.60) s
- APTT ([2]; female, 20 mg/kg, day 2): 29.20 (20.65)^b^,^c^,^d s
- Fibrinogen ([2]; female, 20 mg/kg, day 2): 83.00 (151.75)^d mg/dL
- PT ([2]; female, 20 mg/kg, day 2): 23.45 (9.75)^b^,^c s
- APTT ([2]; male, 5 mg/kg): 14.80 (0.98) s
- Fibrinogen ([2]; male, 5 mg/kg): 262.50 (9.00) mg/dL
- PT ([2]; male, 5 mg/kg): 15.95 (0.50) s
- APTT ([2]; male, 10 mg/kg): 14.60 (1.05) s
- Fibrinogen ([2]; male, 10 mg/kg): 261.00 (54.75) mg/dL
- PT ([2]; male, 10 mg/kg): 17.50 (1.40) s
- APTT ([2]; male, 20 mg/kg, day 2): 18.50 (3.13)^b^,^c^,^d s
- Fibrinogen ([2]; male, 20 mg/kg, day 2): 98.00 (18.50)^b^,^c^,^d mg/dL
- PT ([2]; male, 20 mg/kg, day 2): 21.25 (1.40)^b^,^c s
- Vd (in vivo; both, 20 mg/kg): 0.756 L/kg
- level at 600 h (in vivo; female, 10 mg/kg): 12.5 ng/mL
